Like-named read-outs stand apart in the source and are kept apart here.
Legend:
Type in all cases: cell-based
[1] = system: T47D cells expressing mutant PI3Ka (H1047R); assay: In vitro cell proliferation, T47D cells (CellTiter-Glo); settings: inhibition of proliferation, read-out: Avg T-47D EC50
Procedure, shortened: (§1)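 Proliferation was read by CellTiter-Glo luminescence after 72 h of exposure to 10-point compound dilutions at 37 °C and 5% CO2. T47D (RPMI, 10% FBS, insulin 0.2 units/mL) and SKBR3 (McCoys 5a, 10% FBS) cells were seeded at 1,500 cells/well. EC50 was fitted from inhibition relative to DMSO and 10 uM Alpelisib.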

[2] = system: SKBR3 cells express WT PI3Ka; assay: In vitro cell proliferation, SKBR3 cells (CellTiter-Glo); settings: inhibition of proliferation
Procedure, shortened: as §1

[3] = system: phosphorylation of AKT (pAKT) in T47D cells expressing mutant PI3Ka (H1047R); assay: In vitro cell pAKT (Ser473) HTRF, T47D cells; settings: cellular pAKT, T47D cells, mutant PI3Ka (H1047R), 6 hours, read-out: Avg T-47D IC50
Procedure, shortened: (§2)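 Cells seeded on plates pre-stamped with 10-point compound dilutions, then grown 6 h at 37 °C (T47D in RPMI/10% FBS/insulin; SKBR3 in McCoy's 5a/10% FBS). Lysates read for pAKT Ser473 by HTRF after overnight antibody incubation. Inhibition normalised to 0.1% DMSO and 10 uM alpelisib; IC50 by four-parameter fit.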

[4] = system: phosphorylation of AKT (pAKT) in SKBR3 cells express WT PI3Ka; assay: In vitro cell pAKT (Ser473) HTRF, SKBR3 cells; settings: cellular pAKT
Procedure, shortened: as §2

Row | SMILES | EC50 ([1]; Homo sapiens, T47D, 72 h) [nM] | EC50 ([2]; Homo sapiens, SK-BR-3, 72 h) [nM] | IC50 ([3]; Homo sapiens, T47D, 6 h) [nM] | IC50 ([4]; Homo sapiens, SK-BR-3, 6 h) [nM] | EC50 ([1]; 72 hours) [nM] | EC50 ([2]; 72 hours) [nM] | IC50 [3] [nM] | IC50 ([4]; 6 hours) [nM]
1 | Cc1cc([C@@H](C)Nc2ccccc2C(=O)O)c2cc(N3CCN(c4cnc(C)nc4)CC3)n(C)c(=O)c2c1 [Example 237] | 1 to 500 | 2000 to 15000 | 1 to 500 | 2000 to 15000 |  |  |  | 
2 | CCOc1ncc(-c2cc3c([C@@H](C)Nc4ccccc4C(=O)O)cc(C)cc3c(=O)n2C)cc1F [Example 238] | 1 to 500 | > 15000 | 1 to 500 | > 15000 |  |  |  | 
3 | Cc1cc([C@@H](C)Nc2ccccc2C(=O)O)c2cc(-c3cnc(C4CC4)s3)n(C)c(=O)c2c1 [Example 239] | 1 to 500 | > 15000 | 1 to 500 | > 15000 |  |  |  | 
4 | Cc1cc([C@@H](C)Nc2ccccc2C(=O)O)c2cc(-c3cnc4c(c3)CCC4(F)F)n(C)c(=O)c2c1 [Example 240] | 1 to 500 | > 15000 | 1 to 500 | > 15000 |  |  |  | 
5 | Cc1cc([C@@H](C)Nc2ccccc2C(=O)O)c2cc(-c3ccncc3)n(C)c(=O)c2c1 [Example 241] | 1 to 500 | > 15000 | 1 to 500 | > 15000 |  |  |  | 
6 | Cc1cc([C@@H](C)Nc2ccccc2C(=O)O)c2cc(N3CCC(C)(C#N)C3)n(C)c(=O)c2c1 (some centres unmarked) [Example 243] | 1 to 500 | > 15000 | 1 to 500 | > 15000 |  |  |  | 
7 | Cc1cc([C@@H](C)Nc2ccccc2C(=O)O)c2cc(N3CCN(CC(F)(F)C4CC4)CC3)n(C)c(=O)c2c1 [Example 244] |  |  |  |  | 1 to 500 | > 15000 | 1 to 500 | 2000 to 15000
8 | COc1ncc(-c2cc3c([C@@H](C)Nc4ccccc4C(=O)O)cc(C)cc3c(=O)n2C)cc1F [Example 246] | 2000 to 15000 | > 15000 | 2000 to 15000 | > 15000 |  |  |  | 
9 | COCc1ncc(-c2cc3c([C@@H](C)Nc4ccccc4C(=O)O)cc(C)cc3c(=O)n2C)cc1F [Example 247] | 1 to 500 | > 15000 | 1 to 500 | > 15000 |  |  |  | 
10 | Cc1cc([C@@H](C)Nc2ccccc2C(=O)O)c2cc(-c3cnc4c(c3)CCC4F)n(C)c(=O)c2c1 (some centres unmarked) [Example 248] | 500 to 2000 | > 15000 | 1 to 500 | > 15000 |  |  |  | 
11 | Cc1cc([C@@H](C)Nc2ccccc2C(=O)O)c2cc(N3CCOCC3)n(C)c(=O)c2c1 [Example 249] | 1 to 500 | > 15000 | 1 to 500 | > 15000 |  |  |  | 
12 | Cc1cc([C@@H](C)Nc2ccccc2C(=O)O)c2cc(N3CCN(OC(C)C)CC3)n(C)c(=O)c2c1 [Example 250] | 1 to 500 | > 15000 | 1 to 500 | > 15000 |  |  |  | 
13 | Cc1cc([C@@H](C)Nc2ccccc2C(=O)O)c2cc(-c3cnc4c(c3)CCO4)n(C)c(=O)c2c1 [Example 252] | 1 to 500 | > 15000 | 1 to 500 | > 15000 |  |  |  | 
14 | Cc1cc([C@@H](C)Nc2ccccc2C(=O)O)c2cc(N3CCN(c4ncn(C)n4)CC3)n(C)c(=O)c2c1 [Example 253] | 500 to 2000 | > 15000 | 500 to 2000 | > 15000 |  |  |  | 
15 | Cc1cc([C@@H](C)Nc2ccccc2C(=O)O)c2cc(N3CCN(c4cn(C)nn4)CC3)n(C)c(=O)c2c1 [Example 254] |  |  |  |  | 2000 to 15000 | > 15000 | 2000 to 15000 | > 15000
16 | Cc1cc([C@@H](C)Nc2ccccc2C(=O)O)c2cc(N3CCN(c4nccnc4C)CC3)n(C)c(=O)c2c1 [Example 255] | 1 to 500 | 2000 to 15000 | 1 to 500 | 2000 to 15000 |  |  |  | 
17 | COc1ncccc1N1CCN(c2cc3c([C@@H](C)Nc4ccccc4C(=O)O)cc(C)cc3c(=O)n2C)CC1 [Example 256] |  |  |  |  | 1 to 500 | 2000 to 15000 | 1 to 500 | 2000 to 15000
18 | CCc1ncccc1N1CCN(c2cc3c([C@@H](C)Nc4ccccc4C(=O)O)cc(C)cc3c(=O)n2C)CC1 [Example 257] | 1 to 500 | 2000 to 15000 | 1 to 500 | 2000 to 15000 |  |  |  | 
19 | Cc1cc([C@@H](C)Nc2ccc(F)cc2C(=O)O)c2cc(N3CCN(CC(F)(F)F)CC3)n(C)c(=O)c2c1 [Example 259] |  |  |  |  | 1 to 500 | > 15000 | 1 to 500 | 2000 to 15000
20 | Cc1cc([C@@H](C)Nc2ccccc2C(=O)O)c2cc(N3CCC(C)(O)CC3)n(C)c(=O)c2c1 [Example 260] | 500 to 2000 | > 15000 | 2000 to 15000 | > 15000 |  |  |  | 

From patent US20260078103A1, “ISOQUINOLONES AS PI3K INHIBITORS” (OnKure, Inc., priority 2022, published 2026)
